From patent US9802899B2, “Heterocyclic compounds as pesticides” (BAYER CROPSCIENCE AG, priority 2012, dated 2017)

test: Determination of the log P values by HPLC (formic acid method); assay type: physicochemical; settings: reversed-phase HPLC column (C 18), reversed-phase column (C 18), acidic range (pH 3.4), 55° C.
Protocol: 1) Description of Method for Determination of the Log P Values (Formic Acid Method)
Eluents for determination in the acidic range (pH 3.4):
Eluent A: acetonitrile+1 ml of formic acid/liter. Eluent B: water+0.9 ml of formic acid/liter.
The lambda max values were determined in the maxima of the chromatographic signals using the UV spectra from 200 nm to 400 nm.

Row | chromatographic logP | Compound
1 | 2.23 | Nc1nn(-c2ccccc2Cl)cc1Br [4-Bromo-1-(2-chlorophenyl)-1H-pyrazole-3-amine]
2 | 0.9 | Nc1ccn(-c2cncc(F)n2)n1 [1-(6-Fluoropyrazin-2-yl)-1H-pyrazole-3-amine]
3 | 2.68 | O=C(Nc1ccn(-c2nc(F)c(F)cc2F)n1)c1ccccc1Br [Compound I-1-164, 2-Bromo-N-[1-(3,5,6-trifluoropyridin-2-yl)-1H-pyrazol-3-yl]benzamide]
4 | 0.4 | Nc1cnn(-c2ncccc2F)n1 [2-(3-Fluoropyridin-2-yl)-2H-1,2,3-triazole-4-amine]
5 | 2.67 | N#Cc1c(-n2ccc(NC(=O)c3ccccc3C(F)(F)F)n2)ccnc1Cl [Compound I-1-585, N-[1-(2-Chloro-3-cyanopyridin-4-yl)-1H-pyrazol-3-yl]-2-(trifluoromethyl)benzamide]
6 | 2.96 | O=C(Nc1ccn(-c2nccc(I)c2F)n1)c1ccccc1C(F)(F)F [Compound I-1-576, N-[1-(3-Fluoro-4-iodopyridin-2-yl)-1H-pyrazol-3-yl]-2-(trifluoromethyl)benzamide]
7 | 1.47 | CCOc1cccc(F)c1-n1ccc(N)n1 [1-(2-Ethoxy-6-fluorophenyl)-1H-pyrazole-3-amine]

same assay, conditions: reversed-phase column (C 18), acidic range (pH 3.4), 55° C.

Row | log P | Compound | chromatographic logP
8 | 3.16 | Cc1ccsc1C(=O)Nc1ccn(-c2ccccc2Br)n1 [Compound I-1-60] | 
9 | 2.33 | Cc1noc(C(F)F)c1C(=O)Nc1ccn(-c2ncc(F)cc2F)n1 [Compound I-1-157] | 
10 | 2.50 | O=C(Nc1ccn(-c2ncc(F)cc2F)n1)c1ccccc1OC(F)F [Compound I-1-459] | 
11 | 2.73 | O=C(Nc1nn(-c2c(F)cccc2F)cc1Cl)c1ccccc1C(F)(F)F [Compound I-1-251] | 
12 | 2.53 | O=C(Nc1ccn(-c2ncc(F)cc2F)n1)c1ccccc1OC(F)F [Compound I-1-458] | 
13 | 3.58 | CCc1cc(NC(=O)c2cccnc2C(F)(F)F)nn1-c1ccc(F)cc1F [Compound I-1-204] | 
14 | 2.53 | Cc1nonc1C(=O)Nc1ccn(-c2c(F)cccc2F)n1 [Compound I-1-116] | 
15 | 2.65 | CCc1nccnc1C(=O)Nc1ccn(-c2c(F)cccc2F)n1 [Compound I-1-285] | 
16 | 2.74 | O=C(Nc1ccn(-c2ncc(Cl)cc2F)n1)c1ccccc1Cl [Compound I-1-590] | 
17 | 2.20 | O=C(Nc1cnn(-c2ccccc2Cl)n1)c1cccnc1Cl [Compound I-2-5] | 
18 | 1.51 | Cn1cnnc1C(=O)Nc1ccn(-c2c(F)cccc2F)n1 [Compound I-1-328] | 
19 | 3.18 | O=C(Nc1nn(-c2ccccc2Cl)cc1I)c1ccccc1I [Compound I-1-367] | 
20 | 3.53 | O=C(Nc1ccn(-c2c(F)cccc2F)n1)c1ccccc1NC(=O)C(F)(F)F [Compound I-1-612] | 
21 | 2.35 | Cc1nc(C(F)(F)F)c(C(=O)Nc2ccn(-c3ncc(F)cc3F)n2)s1 [Compound I-1-497] | 
22 | 2.84 | COc1ccccc1-n1ccc(NC(=O)c2ccccc2C(F)(F)F)n1 [Compound I-1-406] | 
23 | 3.00 | O=C(Nc1ccn(-c2c(F)cccc2F)n1)c1ccccc1CC(F)(F)F [Compound I-1-610] | 
24 | 2.63 | N#Cc1c(F)cccc1-n1ccc(NC(=O)c2ccccc2I)n1 [Compound I-1-625] | 
25 | 2.38 | CC(=O)c1ccccc1C(=O)Nc1ccn(-c2c(F)cccc2F)n1 [Compound I-1-270] | 
26 | 2.27 | Cn1ncc(F)c1C(=O)Nc1ccn(-c2c(F)cccc2F)n1 [Compound I-1-321] | 
27 | 2.00 | O=C(Nc1ccn(-c2ncc(F)cc2F)n1)c1ccccc1[N+](=O)[O-] [Compound I-1-147] | 
28 | 1.95 | N#Cc1c(F)cccc1-n1ccc(NC(=O)c2cccnc2Cl)n1 [Compound I-1-622] | 
29 | 3.29 | O=C(Nc1ccn(-c2ccccc2Cl)n1)c1sccc1Cl [Compound I-1-377] | 
30 | 3.07 | O=C(Nc1ccn(-c2c(F)cccc2F)c1)c1ccsc1I [Compound I-3-7] | 
31 | 1.83 | O=C(Nc1ccn(-c2ncc(F)cn2)n1)c1c(F)cccc1F [Compound I-1-602] | 

Row | log P | Compound | chromatographic logP
32 | 2.78 | Cc1nn(C)c(C(=O)Nc2ccn(-c3c(F)cccc3F)n2)c1Cl [Compound I-1-307] | 
33 | 2.93 | O=C(Nc1ccn(-c2ncc(Cl)cc2Cl)n1)c1cc(Cl)ccc1C(F)(F)F [Compound I-1-437] | 
34 | 2.06 | Cn1nc(C(F)F)c(C(=O)Nc2ccn(-c3ncc(F)cc3F)n2)c1F [Compound I-1-500] | 
35 | 2.18 | O=C(Nc1ccn(-c2nccnc2F)n1)c1ccccc1I [Compound I-1-176] | 
36 | 3.03 | CCOc1cccc(Cl)c1-n1ccc(NC(=O)c2ccccc2Br)n1 [Compound I-1-398] | 
37 | 3.40 | O=C(Nc1ccn(-c2ccc(Cl)cc2Cl)n1)c1ccccc1Cl [Compound I-1-200] | 
38 | 2.46 | O=C(Nc1ccn(-c2ncccc2Cl)n1)c1ccsc1I [Compound I-1-566] | 
39 | 2.60 | Cc1ccccc1C(=O)Nc1ccn(-c2c(F)cccc2F)n1 [Compound I-1-73] | 
40 | 2.65 | Cc1nn(C(F)F)c(C(=O)Nc2ccn(-c3ncc(F)cc3F)n2)c1F [Compound I-1-444] | 
41 | 1.77 | O=C(Nc1ccn(-c2nccnc2F)n1)c1ncccc1C(F)(F)F [Compound I-1-178] | 
42 | 3.99 | CCc1cc(NC(=O)c2ccccc2Cl)nn1-c1ccc(F)cc1F [Compound I-1-213] | 
43 | 4.03 | Cc1nn(-c2ncccc2Cl)nc1N(C(=O)c1ccccc1I)C(=O)c1ccccc1I [Compound I-2-61] | 
44 | 2.70 | Cn1nc([N+](=O)[O-])c(Cl)c1C(=O)Nc1ccn(-c2c(F)cccc2F)n1 [Compound I-1-312] | 
45 | 3.12 | O=C(Nc1ccn(-c2cccc(Cl)c2F)n1)c1c(F)cccc1F [Compound I-1-556] | 
46 | 3.56 | C=CCN(C(=O)c1ccccc1Cl)c1ccn(-c2ccccc2Cl)n1 [Compound I-1-26] | 
47 | 2.16 | O=C(Nc1ccn(-c2ncccc2F)n1)c1occc1I [Compound I-1-582] | 
48 | 2.95 | O=C(Nc1ccn(-c2ncc(Cl)cc2Cl)n1)c1ccccc1Br [Compound I-1-430] | 
49 | 2.69 | COc1ccccc1-n1ccc(NC(=O)c2ccccc2Br)n1 [Compound I-1-2] | 
50 |  | Nc1cnn(-c2c(F)cccc2F)n1 [Ex. 21-IX, 2-(2,6-Difluorophenyl)-2H-1,2,3-triazole-4-amine] | 1.16
51 | 2.21 | Cc1ccccc1C(=O)NC1=NN(c2c(F)cccc2F)CC1 [Compound I-4-5] | 
52 | 2.12 | COc1ccccc1-n1ccc(NC(=O)c2cccnc2Br)n1 [Compound I-1-409] | 
53 | 2.53 | N#Cc1ccccc1-n1ccc(NC(=O)c2ccccc2I)n1 [Compound I-1-394] | 
54 | 2.00 | Cc1cnoc1C(=O)Nc1ccn(-c2ncc(F)cc2F)n1 [Compound I-1-543] | 
55 | 2.62 | O=C(Nc1nn(-c2ncc(F)cc2F)cc1Cl)c1ccccc1C(F)(F)F [Compound I-1-473] | 

Row | log P | Compound | chromatographic logP
56 | 2.37 | N#Cc1cn(-c2ccccc2Cl)nc1NC(=O)c1ccccc1Cl [Compound I-1-362] | 
57 | 4.45 | Cc1ccccc1C(=O)N(C(=O)c1cccnc1C)C1=NN(c2c(F)cccc2F)CC1 [Compound I-4-6] | 
58 | 1.83 | Cn1cc(C(=O)Nc2ccn(-c3ncc(Cl)cc3Cl)n2)c(I)n1 [Compound I-1-435] | 
59 | 2.20 | Cn1ncc(I)c1C(=O)Nc1ccn(-c2ncc(F)cc2F)n1 [Compound I-1-540] | 
60 | 3.40 | O=C(Nc1ccn(-c2cc(Cl)ccc2Cl)n1)c1ccccc1Br [Compound I-1-119] | 
61 | 2.42 | O=C(Nc1ccn(-c2c(F)cccc2F)n1)c1c(F)cccc1F [Compound I-1-84] | 
62 | 2.47 | COc1cccc(Cl)c1C(=O)Nc1ccn(-c2c(F)cccc2F)n1 [Compound I-1-271] | 
63 | 3.19 | Cn1nc(C(F)(F)F)c(Br)c1C(=O)Nc1ccn(-c2ncc(F)cc2F)n1 [Compound I-1-522] | 
64 | 2.65 | O=C(Nc1ccn(-c2ccccc2Cl)n1)c1c(F)cccc1F [Compound I-1-36] | 
65 | 2.96 | O=C(Nc1ccn(-c2cnc(Cl)cn2)n1)c1ccccc1I [Compound I-1-390] | 
66 | 2.23 | Cn1ncc(Br)c1C(=O)Nc1ccn(-c2ncc(F)cc2F)n1 [Compound I-1-521] | 
67 | 2.80 | O=C(Nc1ccn(-c2c(F)cccc2F)n1)c1cc(F)ccc1C(F)(F)F [Compound I-1-331] | 
68 | 2.99 | N#Cc1cc(F)c(-n2nc(NC(=O)c3c(F)cccc3F)c3c(F)cccc32)cc1F [Compound I-5-11] | 
69 | 2.29 | O=C(Nc1cnn(-c2ccccc2Br)n1)c1cccnc1Cl [Compound I-2-9] | 
70 | 2.00 | O=C(Nc1cnn(-c2ncc(F)cc2F)n1)c1cccnc1C(F)(F)F [Compound I-2-67] | 
71 | 1.37 | Cc1oncc1C(=O)Nc1ccn(-c2ncc(F)cc2F)n1 [Compound I-1-547] | 
72 | 3.23 | Cc1ccc(-n2ccc(NC(=O)c3ccccc3Br)n2)c(Cl)c1 [Compound I-1-338] | 
73 | 3.08 | CN(C(=O)c1ccccc1C(F)(F)F)c1ccn(-c2c(F)cccc2F)n1 [Compound I-1-253] | 
74 | 3.06 | Cc1c(F)cnc(F)c1-n1ccc(NC(=O)c2ccccc2C(F)(F)F)n1 [Compound I-1-217] | 
75 | 3.50 | CC(C)N(C(=O)c1ccccc1C(F)(F)F)c1ccn(-c2c(F)cccc2F)n1 [Compound I-1-260] | 
76 | 2.23 | Cc1cn(-c2ccccc2Cl)nc1NC(=O)c1cccnc1Br [Compound I-1-357] | 
77 | 2.97 | COc1ccc(C(=O)Nc2ccn(-c3c(F)cccc3F)c2)c(Cl)c1 [Compound I-3-4] | 
78 | 2.36 | Cn1nc(C(F)(F)F)c(C(=O)Nc2ccn(-c3ncc(F)cc3F)n2)c1F [Compound I-1-158] | 
79 | 2.05 | O=C(Nc1ccn(-c2ncccc2F)n1)c1ccccc1Cl [Compound I-1-129] | 
